Reference: article PMC12009420, “Dynamically chiral phosphonic acid-type metallo-β-lactamase inhibitors” (Communications Chemistry, 2025)
Like-named read-outs stand apart in the source and are kept apart here.

What was measured:
VIM-2 = VIM-2 (Escherichia coli, UniProt Q5U7L7); assay: Enzymatic metallo-β-lactamase assay on purified VIM-2; format: biochemical; conditions: for Ki: approximated from Dixon plots (1/v vs [I]) at one constant substrate concentration, ± SE, read-out: Estimated inhibition constant Ki VIM-2; for logIC50 VIM-2: log of IC50, ± SEM of logIC50; for IC50: purified enzyme 1 nM, nitrocefin 15 μM, pH 7.2, 25 °C
Protocol: (§1) A few inhibitors were tested up to 1600 μM to ensure nearly complete inhibition. Solutions of 100 μL consisting of buffer, purified enzyme (1 nM for GIM-1 and VIM-2, 5 nM for NDM-1), inhibitor and reporter substrate nitrocefin (15 μM for VIM-2, 2 μM for GIM-1) or imipenem (30 μM for NDM-1) were incubated in triplicates on a 96 well plate for 5 min at 25 °C. Buffer solution consisted of 50 mM HEPES pH 7.2, 50 μM ZnSO4 and 0.4 mg/ml bovine serum albumine. Inhibitors were dissolved in DMSO but diluted to assure <2% DMSO in measured assay. Absorbance was measured at 482 nm (nitrocefin) and 300 nm (imipenem) on a SpectraMax M4 spectrophotometer. The initial velocity at each inhibitor concentration was analyzed in GraphPad Prism v9.3.1 and fitted to dose-response curves by non-linear regression (log [inhibitor] vs response) used to calculate IC50 (Supplementary Tables S2–5).

MTT cytotoxicity assay = format: cell-based; conditions: human, HepG2 cells
Protocol: Cytotoxic activity of the compounds was measured through the MTT colorimetric assay as previously described[60] using the Colorimetric (MTT) Kit for Cell Survival and Proliferation (Merck/Millipore; Darmstadt, Germany). HepG2 cells (human hepatocellular carcinoma cell line) were kept in penicillin/streptomycin-free medium overnight and then they were treated with the compounds for 24 h. Subsequently, the MTT reagent was added to the cells and after 3 h of incubation, MTT-derived formazan crystals were solubilized in acidified isopropanol (0.1 mL isopropanol with 0.04 N HCl). Absorbance was measured with multiscan spectrophotometer (Thermo Fisher Scientific) at 530 nm test and 630 nm reference wavelengths. Cell viability was expressed as the percentage of viable, untreated cells. CC50 values were determined with GraphPad Prism software (v9.3.1) and adjusted to dose-response curves by non-linear regression (Supplementary Table S7).
8. Cytotoxocity against HepG2 cells
Table S7. CC50 values and viability curves of metallo-β-lactamase inhibitors tested on HepG2 […]
cells. […]
range. Data are shown as % via bility values ± SEM (n=4). Calculations were done using […]
Inhibitors CC50 (μM) HepG2 […]

NDM-1 = NDM-1 (Klebsiella pneumoniae, UniProt C7C422); assay: Enzymatic metallo-β-lactamase assay on purified NDM-1; format: biochemical; conditions: for Ki: approximated from Dixon plots (1/v vs [I]) at one constant substrate concentration, ± SE, read-out: Estimated inhibition constant Ki NDM-1; for logIC50 NDM-1: log of IC50, ± SEM of logIC50; for IC50: purified enzyme 5 nM, imipenem 30 μM, pH 7.2, 25 °C
Chain of NDM-1 (C7C422 29-270, looked up, species assumed): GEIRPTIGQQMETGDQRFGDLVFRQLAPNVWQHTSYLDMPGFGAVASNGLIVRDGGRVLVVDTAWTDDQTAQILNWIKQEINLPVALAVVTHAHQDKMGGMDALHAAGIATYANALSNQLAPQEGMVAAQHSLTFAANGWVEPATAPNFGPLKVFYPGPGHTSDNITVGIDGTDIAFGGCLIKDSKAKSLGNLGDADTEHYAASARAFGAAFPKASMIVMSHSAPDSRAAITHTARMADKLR
Protocol: as §1

[1] = Long term stability in buffer with 2.5% DMSO (LC-MS); format: physicochemical; conditions: 20 mM KPO4, 0.1 mM ZnCl2, pH 7.0 + 2.5% DMSO; LC-MS 254 nm
Description: Reagents, reactants, solvents and drying agents for synthesis, work-up and purification were purchased from commercial vendors (Sigma-Aldrich, VWR, Merck, Fluorochem, Thermo Fisher Scientific, Solveco), and if not stated otherwise they were used without further purification. Reactions and long term stability of the final compounds in buffer were monitored using LC-MS (Agilent 1260 Infinity II) equipped with an ESI-Q detector (Infinitylab LC-MSD) using Agilent InfinityLab Poroshell 120 C18 columns (2.7 μm, ϕ 2.1 mm L 50 mm or 2.7 μm, ϕ 4.6 mm L 50 mm). The intermediates were purified using VWR silica gel 60 (40–63 μm) with a Biotage Isolera One flash column chromatography instrument. The final products were purified with preparative RP-HPLC (VWR LaPrep P110) with single wavelength detection (254 nm), using a Kinetex C8 column (5 μm, 100 Å, ϕ 21.2 mm L 250 mm) and gradients of CH3CN/H2O + 0.1% formic acid as the mobile phase at a 10 mL/min flow rate. Analytical HPLC data were acquired on a VWR LaChrome ELITE system using an ACE3 C8 (3 μm, 300 Å, ϕ 3.0 mm L 100 mm) or a Kinetex C18 columns (5 μm, 100 Å, ϕ 3.0 mm L 150 mm). NMR spectra were recorded on a Varian Agilent MR400-DD2 400 MHz spectrometer equipped with a OneNMR probe, Bruker Avance Neo 500 MHz spectrometer equipped with a cryogenic TXO probe, or a Bruker Avance Neo 600 MHz spectrometer equipped with a TCI cryogenic probe. The chemical shifts are reported using the residual solvent signal as an indirect reference to TMS.
4. Long term stability of the final compounds in buffer with 2.5% DMSO
The long term stability of the final compounds in buffer (20 mM KPO4, 0.1 mM ZnCl2, pH 7.0 + 2.5% DMSO) were monitored using LC-MS (Agilent 1260 Infinity II) equipped with an ESI-Q detector (Infinitylab LC-MSD) using Agilent InfinityLab Poroshell 120 C18 column (2.7 μm, ϕ 4.6 mm L 50 mm) at 254 nm with a 7 min long gradient method (5% to 95% CH3CN) of CH3CN/H2O + 0.1% formic acid as the mobile phase at a 1.0 mL/min flow rate. The samples were measured right after dissolving them in buffer, and after 1 month of keeping the same samples dissolved in the same buffer. The main peaks (> 95%) and impurities with > 1% are […]
Figure S14. Compound 5a right after dissolving it in buffer.
Figure S15. Compound 5a kept in buffer for 1 month. […]

GIM-1 [2] = target: T1, GIM-1 (Pseudomonas aeruginosa, UniProt Q704V1); assay: Enzymatic metallo-β-lactamase assay on purified GIM-1; format: biochemical; conditions: approximated from Dixon plots (1/v vs [I]) at one constant substrate concentration; ± SE; read-out: Estimated inhibition constant Ki GIM-1
T1 sequence (Q704V1 entry or part of it): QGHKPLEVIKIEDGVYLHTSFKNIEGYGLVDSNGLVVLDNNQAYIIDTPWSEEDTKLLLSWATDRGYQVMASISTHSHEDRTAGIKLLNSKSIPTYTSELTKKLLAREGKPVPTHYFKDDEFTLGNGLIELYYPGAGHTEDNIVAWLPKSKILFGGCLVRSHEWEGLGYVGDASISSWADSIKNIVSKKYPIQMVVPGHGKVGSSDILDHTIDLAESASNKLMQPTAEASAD

GIM-1 [3] = target: T1, GIM-1; assay: as above; format: biochemical; conditions: for logIC50 GIM-1: log of IC50, ± SEM of logIC50; for IC50: purified enzyme 1 nM, nitrocefin 2 μM, pH 7.2, 25 °C
Protocol: as §1

[4] = HepG2, MTT, read-out: CC50 (in viability curve)
[5] = MTT, 0.0025 mM - 1mM concentration range, read-out: Cytotoxicity CC50 HepG2

Structure (SMILES)	Ki (VIM-2) [µM]	logIC50 VIM-2 (VIM-2) [μM]	IC50 (VIM-2) [µM]	CC50 at 24 h (MTT cytotoxicity assay; [4]) [µM]	CC50 at 24 h (MTT cytotoxicity assay; [5]) [µM]	Ki (NDM-1) [µM]	logIC50 NDM-1 (NDM-1)	IC50 (NDM-1) [µM]	main peak Area% kept in buffer for 1 month [1] [%]	main peak Area% right after dissolving in buffer [1] [%]	Ki (GIM-1 [2]) [µM]	logIC50 GIM-1 (GIM-1 [3]) [μM]	IC50 (GIM-1 [3]) [µM]
O=C(NC(c1ccccc1O)P(=O)(O)O)c1cccs1 (stereo not drawn) [5a]	36 ± 6	1.85 ± 0.07	71	4500	4550	617 ± 95	2.34 ± 0.09 log10(IC50/μM)	217	95.67	95.87	144 ± 36	1.30 ± 0.08	20
O=C(NC(c1ccccc1O)P(=O)(O)O)c1ccsc1 (stereo not drawn) [5b]	112 ± 11	2.10 ± 0.08	124	1800	1830	451 ± 57	1.99 ± 0.13 log10(IC50/μM)	97	95.03	95.46	162 ± 21	2.37 ± 0.21	236
O=C(NC(c1ccccc1O)P(=O)(O)O)c1cc2c(s1)CCCC2 (stereo not drawn) [5e]	72 ± 7	1.90 ± 0.11	79	> 1000	> 1000	–	–	–	98.87	98.53	76 ± 5	1.73 ± 0.12	53
O=C(NC(c1ccccc1O)P(=O)(O)O)c1ccccc1 (stereo not drawn) [5h]	85 ± 12	1.74 ± 0.05	55	> 1000	> 1000	363 ± 86	1.93 ± 0.09 log10(IC50/μM)	85	95.39	95.97	118 ± 20	1.54 ± 0.13	35
O=C(Cc1cc2ccccc2s1)NC(c1ccccc1O)P(=O)(O)O (stereo not drawn) [5k]	119 ± 13	1.71 ± 0.07	51	5600	5610	262 ± 41	1.81 ± 0.11 log10(IC50/μM)	65	98.27	98.10	189 ± 76	1.90 ± 0.08	80
O=C(Cc1csc2ccccc12)NC(c1ccccc1O)P(=O)(O)O (stereo not drawn) [5l]	39 ± 5	1.42 ± 0.18	26	3900	3910	411 ± 160	1.83 ± 0.05 log10(IC50/μM)	67	98.10	98.54	193 ± 41	1.71 ± 0.07	51
O=C(Cc1ccccc1)NC(c1ccccc1O)P(=O)(O)O (stereo not drawn) [5m]	74 ± 7	1.87 ± 0.35	74	> 1000	> 1000	–	–	–	–	96.96	213 ± 22	2.08 ± 0.53	121
